{"source": "patent US20170340689A1", "about": "“TITRATED EXTRACTS OF CYNARA SCOLYMUS FOR USE IN THE TREATMENT OF MESOTHELIOMA” (ABOCA S.P.A SOCIETÀ AGRICOLA, priority 2014, published 2017)", "tested_on": "untransformed HMC cells", "assay": "ATPlite cell vitality assay in co-treatment with pemetrexed, untransformed cells", "format": "cell-based, human", "conditions": "extract at non-cytotoxic dose 6 μg/ml", "description": "4.1 Association of Extract of Cynara Spp. and Pemetrexed with ATPlite™ Assay"}
{"smiles": "Nc1nc2[nH]cc(CCc3ccc(C(=O)N[C@@H](CCC(=O)O)C(=O)O)cc3)c2c(=O)[nH]1", "note": "[PMTX, pemetrexed]", "values": [{"measurement": "cell vitality of untransformed HMC cells, pemetrexed alone or with extract", "result": "highly toxic for the non-tumour cells"}]}
